From article PMC5218480 (PLoS ONE, 2017) come the findings set out here.

This experiment relates to MV-4-11 cells. The experiment is described as follows: Gene expression microarray analysis (Affymetrix PrimeView) and GSEA. In kind it is cell-based, human. On the set-up: RFU PODN (11730768_x_at) / Fold change /veh PODN (11730768_x_at) / RFU LINC00158 (11744669_a_at) / Fold change /veh LINC00158 (11744669_a_at) / RFU DUSP10 (11751237_a_at) / Fold change /veh DUSP10 (11751237_a_at) / RFU ID3 (11757404_x_at) / Fold change /veh ID3 (11757404_x_at) / RFU PLEKHG5 (11737974_s_at) / Fold change /veh PLEKHG5 (11737974_s_at) / RFU LRRC4B (11730491_at) / Fold change /veh LRRC4B (11730491_at) / RFU GIMAP4 (11747438_a_at) / Fold change /veh GIMAP4 (11747438_a_at) / RFU KRT8 (11758183_x_at) / Fold change /veh KRT8 (11758183_x_at) / RFU CNN1 (11734310_a_at) / Fold change /veh CNN1 (11734310_a_at) / RFU VPS37D (11726825_at) / Fold change /veh VPS37D (11726825_at) / RFU C10orf10 (11716522_x_at) / Fold change /veh C10orf10 (11716522_x_at) / RFU KIR2DL2 /// KIR2DL4 /// KIR2DL5A /// KIR2DL5B /// KIR2DS1 /// KIR2DS2 /// KIR2DS3 /// KIR2DS4 /// KIR3DL3 /// KIR3DL3 /// KIR3DS1 (11738374_at) / Fold change /veh KIR2DL2 /// KIR2DL4 /// KIR2DL5A /// KIR2DL5B /// KIR2DS1 /// KIR2DS2 /// KIR2DS3 /// KIR2DS4 /// KIR3DL3 /// KIR3DL3 /// KIR3DS1 (11738374_at) / RFU C1QL1 (11718748_at) / Fold change /veh C1QL1 (11718748_at) / RFU TMPRSS4 (11747572_a_at) / Fold change /veh TMPRSS4 (11747572_a_at) / RFU HAMP (11756126_x_at) / Fold change /veh HAMP (11756126_x_at) / RFU RNFT2 (11725882_a_at) / Fold change /veh RNFT2 (11725882_a_at) / RFU NR4A2 (11747474_a_at) / Fold change /veh NR4A2 (11747474_a_at) / RFU ABCC12 (11746883_a_at) / Fold change /veh ABCC12 (11746883_a_at) / RFU TMEM136 (11760407_x_at) / Fold change /veh TMEM136 (11760407_x_at) / RFU CLDN22 /// WWC2 (11732394_at) / Fold change /veh CLDN22 /// WWC2 (11732394_at) / RFU HLA-DPB1 (11760878_x_at) / Fold change /veh HLA-DPB1 (11760878_x_at) / RFU SPINT1 (11716480_a_at) / Fold change /veh SPINT1 (11716480_a_at) / RFU GAP43 (11754022_s_at) / Fold change /veh GAP43 (11754022_s_at) / RFU A4GNT (11735810_at) / Fold change /veh A4GNT (11735810_at) / RFU PRB3 (11715151_x_at) / Fold change /veh PRB3 (11715151_x_at) / RFU TUBB4B (11761932_at) / Fold change /veh TUBB4B (11761932_at) / RFU CAPN14 (11732068_a_at) / Fold change /veh CAPN14 (11732068_a_at) / RFU TMCC2 (11721928_a_at) / Fold change /veh TMCC2 (11721928_a_at) / RFU IRGQ (11745062_a_at) / Fold change /veh IRGQ (11745062_a_at) / RFU FAM174B (11720279_a_at) / Fold change /veh FAM174B (11720279_a_at) / RFU TMPRSS4 (11748680_a_at) / Fold change /veh TMPRSS4 (11748680_a_at) / RFU FAM212B (11763350_a_at) / Fold change /veh FAM212B (11763350_a_at) / RFU PLEKHG5 (11743358_a_at) / Fold change /veh PLEKHG5 (11743358_a_at) / RFU ZSCAN30 (11745921_a_at) / Fold change /veh ZSCAN30 (11745921_a_at) / RFU CMKLR1 (11741424_a_at) / Fold change /veh CMKLR1 (11741424_a_at) / RFU LOC101060620 /// MAPK8IP1 (11723275_at) / Fold change /veh LOC101060620 /// MAPK8IP1 (11723275_at) / RFU SPTSSB (11747773_x_at) / Fold change /veh SPTSSB (11747773_x_at) / RFU PRSS12 (11739890_at) / Fold change /veh PRSS12 (11739890_at) / RFU BIN1 (11741810_x_at) / Fold change /veh BIN1 (11741810_x_at) / RFU WNT11 (11732464_a_at) / Fold change /veh WNT11 (11732464_a_at) / RFU C10orf10 (11716521_a_at) / Fold change /veh C10orf10 (11716521_a_at) / RFU C5orf56 (11738089_at) / Fold change /veh C5orf56 (11738089_at) / RFU CYB561 (11721691_x_at) / Fold change /veh CYB561 (11721691_x_at) / RFU ANKRD19P (11752326_a_at) / Fold change /veh ANKRD19P (11752326_a_at) / RFU OR2T12 /// OR2T33 /// OR2T8 (11738714_s_at) / Fold change /veh OR2T12 /// OR2T33 /// OR2T8 (11738714_s_at) / RFU VCAN (11748164_a_at) / Fold change /veh VCAN (11748164_a_at) / RFU JSRP1 (11732532_at) / Fold change /veh JSRP1 (11732532_at) / RFU KRTAP10-11 (11738290_x_at) / Fold change /veh KRTAP10-11 (11738290_x_at) / RFU MYO3A (11730013_a_at) / Fold change /veh MYO3A (11730013_a_at) / RFU EBF3 (11725865_a_at) / Fold change /veh EBF3 (11725865_a_at) / RFU CAMK2N1 (11719241_x_at) / Fold change /veh CAMK2N1 (11719241_x_at) / RFU C5orf56 (11738088_a_at) / Fold change /veh C5orf56 (11738088_a_at) / RFU OLFML3 (11715873_a_at) / Fold change /veh OLFML3 (11715873_a_at) / RFU LOC100653217 /// NTM (11731650_a_at) / Fold change /veh LOC100653217 /// NTM (11731650_a_at) / RFU MAPK11 (11762145_a_at) / Fold change /veh MAPK11 (11762145_a_at) / RFU FIZ1 (11724087_x_at) / Fold change /veh FIZ1 (11724087_x_at) / RFU OASL (11726364_x_at) / Fold change /veh OASL (11726364_x_at) / RFU SOX15 (11748057_x_at) / Fold change /veh SOX15 (11748057_x_at) / RFU CD79A (11719716_a_at) / Fold change /veh CD79A (11719716_a_at) / RFU HIST1H1D (11736915_at) / Fold change /veh HIST1H1D (11736915_at) / RFU CASKIN2 (11723855_a_at) / Fold change /veh CASKIN2 (11723855_a_at) / RFU LOC730098 (11760151_x_at) / Fold change /veh LOC730098 (11760151_x_at) / RFU OR4N2 (11742367_at) / Fold change /veh OR4N2 (11742367_at) / RFU PRRT2 (11749266_a_at) / Fold change /veh PRRT2 (11749266_a_at) / RFU SNX32 (11753110_a_at) / Fold change /veh SNX32 (11753110_a_at) / RFU CDHR5 (11726645_a_at) / Fold change /veh CDHR5 (11726645_a_at) / RFU RCAN1 (11760418_a_at) / Fold change /veh RCAN1 (11760418_a_at) / RFU FAM167A (11723789_a_at) / Fold change /veh FAM167A (11723789_a_at) / RFU FAM26E (11764081_at) / Fold change /veh FAM26E (11764081_at) / RFU ISYNA1 (11749810_s_at) / Fold change /veh ISYNA1 (11749810_s_at) / RFU ACY1 (11761880_at) / Fold change /veh ACY1 (11761880_at) / RFU 11764098_at / Fold change /veh 11764098_at / RFU SAMD14 (11745864_x_at) / Fold change /veh SAMD14 (11745864_x_at) / RFU NPB (11741838_a_at) / Fold change /veh NPB (11741838_a_at) / RFU TMPRSS6 (11731388_a_at) / Fold change /veh TMPRSS6 (11731388_a_at) / RFU KRTAP10-2 (11738614_at) / Fold change /veh KRTAP10-2 (11738614_at) / RFU ARHGAP8 /// PRR5-ARHGAP8 (11727945_x_at) / Fold change /veh ARHGAP8 /// PRR5-ARHGAP8 (11727945_x_at) / RFU KRTAP5-7 /// NADSYN1 (11734609_at) / Fold change /veh KRTAP5-7 /// NADSYN1 (11734609_at) / RFU RASL12 (11751679_a_at) / Fold change /veh RASL12 (11751679_a_at) / RFU CDKN2B (11736163_a_at) / Fold change /veh CDKN2B (11736163_a_at) / RFU PRF1 (11729649_at) / Fold change /veh PRF1 (11729649_at) / RFU, ZNF638 /// ZNF638-IT1 / Fold change vs veh, ZNF638 /// ZNF638-IT1 / RFU, PANK3 / Fold change vs veh, PANK3 / RFU, SH3YL1 / Fold change vs veh, SH3YL1 / RFU, ZEB2 / Fold change vs veh, ZEB2 / RFU, NRIP1 / Fold change vs veh, NRIP1 / RFU, PTTG1IP / Fold change vs veh, PTTG1IP / RFU, CAPN2 / Fold change vs veh, CAPN2 / RFU, MED14 / Fold change vs veh, MED14 / RFU, SNORA58 / Fold change vs veh, SNORA58 / RFU, C1orf63 / Fold change vs veh, C1orf63 / RFU, LRRFIP1 / Fold change vs veh, LRRFIP1 / RFU, NDUFAF7 / Fold change vs veh, NDUFAF7 / RFU, SLC12A2 / Fold change vs veh, SLC12A2 / RFU, IBTK / Fold change vs veh, IBTK / RFU, ESF1 / Fold change vs veh, ESF1 / Fold change vs veh, TMEM50B / RFU, TAOK1 / Fold change vs veh, TAOK1 / RFU, ACBD3 / Fold change vs veh, ACBD3 / RFU, TMA16 / Fold change vs veh, TMA16 / RFU, RWDD3 / Fold change vs veh, RWDD3 / RFU, BCAT1 / Fold change vs veh, BCAT1 / RFU, EDEM3 / Fold change vs veh, EDEM3 / RFU, TMEM33 / Fold change vs veh, TMEM33 / RFU, WDR75 / Fold change vs veh, WDR75 / RFU, AHCTF1 / Fold change vs veh, AHCTF1 / RFU, TFRC / Fold change vs veh, TFRC / RFU, ZDHHC17 / Fold change vs veh, ZDHHC17 / RFU, NOM1 / Fold change vs veh, NOM1 / RFU, ARL8B / Fold change vs veh, ARL8B / RFU, ZBTB11 / Fold change vs veh, ZBTB11 / RFU, TAMM41 / Fold change vs veh, TAMM41 / RFU, KIAA1704 /// LOC100996395 / Fold change vs veh, KIAA1704 /// LOC100996395 / RFU, ING1 / Fold change vs veh, ING1 / RFU, TRMT61B / Fold change vs veh, TRMT61B / RFU, FUBP3 / Fold change vs veh, FUBP3 / RFU, TP53 / Fold change vs veh, TP53 / RFU, TNKS2 / Fold change vs veh, TNKS2 / RFU, ZFP14 / Fold change vs veh, ZFP14 / RFU, ACTR2 / Fold change vs veh, ACTR2 / RFU, PPP3R1 / Fold change vs veh, PPP3R1 / RFU, PIK3R1 / Fold change vs veh, PIK3R1 / RFU, HNRNPA1 / Fold change vs veh, HNRNPA1 / RFU, RNF170 / Fold change vs veh, RNF170 / RFU, ZNF28 / Fold change vs veh, ZNF28 / RFU, RNGTT / Fold change vs veh, RNGTT / RFU, OGT / Fold change vs veh, OGT / RFU, BRD1 / Fold change vs veh, BRD1 / RFU, MARS / Fold change vs veh, MARS / RFU, ZNF655 / Fold change vs veh, ZNF655 / RFU, FAHD1 / Fold change vs veh, FAHD1 / RFU, BDP1 / Fold change vs veh, BDP1 / RFU, LRRCC1 / Fold change vs veh, LRRCC1 / RFU, ARID1A / Fold change vs veh, ARID1A / RFU, ZNF146 / Fold change vs veh, ZNF146 / RFU, ZNF330 / Fold change vs veh, ZNF330 / RFU, GPN3 / Fold change vs veh, GPN3 / RFU, C9orf123 / Fold change vs veh, C9orf123 / RFU, N4BP2L2 / Fold change vs veh, N4BP2L2 / RFU, ARFIP1 / Fold change vs veh, ARFIP1 / RFU, FAM179B / Fold change vs veh, FAM179B / RFU, BCL10 / Fold change vs veh, BCL10 / RFU, UHRF1BP1L / Fold change vs veh, UHRF1BP1L / RFU, BET1 / Fold change vs veh, BET1 / RFU, CNOT2 / Fold change vs veh, CNOT2 / RFU, ZNF268 / Fold change vs veh, ZNF268 / Fold change vs veh, ZNF507 / RFU, DGCR2 / Fold change vs veh, DGCR2 / RFU, WDSUB1 / Fold change vs veh, WDSUB1 / Fold change vs veh, HSP90B1 /// MIR3652 / RFU, ADSS / Fold change vs veh, ADSS / RFU, GK / Fold change vs veh, GK / RFU, ZNF148 / Fold change vs veh, ZNF148 / RFU, TAF9 / Fold change vs veh, TAF9 / RFU, SLC1A5 / Fold change vs veh, SLC1A5 / RFU, SLMO2 / Fold change vs veh, SLMO2 / RFU, ABCC4 / Fold change vs veh, ABCC4 / RFU, LOC101060439 /// RAP1B / Fold change vs veh, LOC101060439 /// RAP1B / RFU, RFX7 / Fold change vs veh, RFX7 / RFU, GTPBP10 / Fold change vs veh, GTPBP10 / RFU, CNEP1R1 / Fold change vs veh, CNEP1R1 / RFU, BIVM-ERCC5 /// ERCC5 / Fold change vs veh, BIVM-ERCC5 /// ERCC5 / RFU, ILF3 / Fold change vs veh, ILF3 / RFU 11762660_at / Fold change /veh 11762660_at / RFU VCAN (11757783_s_at) / Fold change /veh VCAN (11757783_s_at) / RFU DDX43 (11728927_at) / Fold change /veh DDX43 (11728927_at) / RFU KRT8 (11758188_x_at) / Fold change /veh KRT8 (11758188_x_at) / RFU NKD1 (11759106_at) / Fold change /veh NKD1 (11759106_at) / RFU SRD5A1 (11742802_a_at) / Fold change /veh SRD5A1 (11742802_a_at) / RFU TPSAB1 /// TPSB2 (11721975_s_at) / Fold change /veh TPSAB1 /// TPSB2 (11721975_s_at) / RFU GSTM3 (11746129_a_at) / Fold change /veh GSTM3 (11746129_a_at) / RFU IL23R (11737362_x_at) / Fold change /veh IL23R (11737362_x_at) / RFU TMEM51 (11727254_a_at) / Fold change /veh TMEM51 (11727254_a_at) / RFU PIWIL2 (11732686_x_at) / Fold change /veh PIWIL2 (11732686_x_at) / RFU ORM1 (11744905_x_at) / Fold change /veh ORM1 (11744905_x_at) / RFU CCDC152 (11743942_at) / Fold change /veh CCDC152 (11743942_at) / RFU ECM1 (11717891_a_at) / Fold change /veh ECM1 (11717891_a_at) / RFU IL23R (11748794_a_at) / Fold change /veh IL23R (11748794_a_at) / RFU TNFAIP8L3 (11732012_x_at) / Fold change /veh TNFAIP8L3 (11732012_x_at) / RFU MBOAT4 (11741988_at) / Fold change /veh MBOAT4 (11741988_at) / RFU 11764193_at / Fold change /veh 11764193_at / RFU TMEM53 (11763286_at) / Fold change /veh TMEM53 (11763286_at) / RFU MAGEB2 (11727129_at) / Fold change /veh MAGEB2 (11727129_at) / RFU TMEM200A (11744735_a_at) / Fold change /veh TMEM200A (11744735_a_at) / RFU CCDC152 (11751479_a_at) / Fold change /veh CCDC152 (11751479_a_at) / RFU FAM211A (11726209_a_at) / Fold change /veh FAM211A (11726209_a_at) / RFU RGS16 (11746705_a_at) / Fold change /veh RGS16 (11746705_a_at) / RFU VCAN (11755009_s_at) / Fold change /veh VCAN (11755009_s_at) / RFU RHOB (11743442_s_at) / Fold change /veh RHOB (11743442_s_at) / RFU RGS16 (11720943_a_at) / Fold change /veh RGS16 (11720943_a_at) / RFU RGS16 (11720944_at) / Fold change /veh RGS16 (11720944_at) / RFU, VPS4B / Fold change vs veh, VPS4B / RFU, CREB1 / Fold change vs veh, CREB1 / RFU, DNAJC13 / Fold change vs veh, DNAJC13 / RFU, GNAQ / Fold change vs veh, GNAQ / RFU, CDK5R1 / Fold change vs veh, CDK5R1 / RFU, ZRANB3 / Fold change vs veh, ZRANB3 / RFU, CUL4A / Fold change vs veh, CUL4A / RFU, CCNY / Fold change vs veh, CCNY / RFU, UFL1 / Fold change vs veh, UFL1 / RFU, COG3 / Fold change vs veh, COG3 / RFU, DIAPH2 / Fold change vs veh, DIAPH2 / RFU, SKA2 / Fold change vs veh, SKA2 / RFU, AFF3 / Fold change vs veh, AFF3 / RFU, LMF1 / Fold change vs veh, LMF1 / RFU, IPO11 / Fold change vs veh, IPO11 / RFU, DFFB / Fold change vs veh, DFFB / RFU, FOXP1 / Fold change vs veh, FOXP1 / RFU, CARD8 / Fold change vs veh, CARD8 / RFU, STRN3 / Fold change vs veh, STRN3 / RFU, ADK / Fold change vs veh, ADK / RFU, RASSF2 / Fold change vs veh, RASSF2 / RFU, WIPF1 / Fold change vs veh, WIPF1 / RFU, LARP1B / Fold change vs veh, LARP1B / RFU, RASA1 / Fold change vs veh, RASA1 / RFU, RB1 / Fold change vs veh, RB1 / RFU, PPFIA1 / Fold change vs veh, PPFIA1 / RFU, MAT2A / Fold change vs veh, MAT2A / RFU, CCT5 / Fold change vs veh, CCT5 / RFU, WDR92 / Fold change vs veh, WDR92 / RFU, CUX1 / Fold change vs veh, CUX1 / RFU, TTC7A / Fold change vs veh, TTC7A / RFU, TMEM135 / Fold change vs veh, TMEM135 / RFU, DEPTOR / Fold change vs veh, DEPTOR / RFU, CPM / Fold change vs veh, CPM / RFU, DNAJB6 / Fold change vs veh, DNAJB6 / RFU, CACNA2D3 / Fold change vs veh, CACNA2D3 / RFU, DTX4 / Fold change vs veh, DTX4 / RFU, TFCP2 / Fold change vs veh, TFCP2 / RFU, GMCL1 /// GMCL1P1 / Fold change vs veh, GMCL1 /// GMCL1P1 / RFU, AEBP2 / Fold change vs veh, AEBP2 / RFU, SNHG1 /// SNORD22 /// SNORD25 /// SNORD26 /// SNORD27 /// SNORD28 /// SNORD29 /// SNORD31 / Fold change vs veh, SNHG1 /// SNORD22 /// SNORD25 /// SNORD26 /// SNORD27 /// SNORD28 /// SNORD29 /// SNORD31 / Fold change (Aza/veh), C12orf56 (ProbeSet 11735607_a_at) / Fold change (ACY-1035/veh), C12orf56 (ProbeSet 11735607_a_at) / Fold change (Aza/veh), FGFR1OP (ProbeSet 11751329_s_at) / Fold change (ACY-1035/veh), FGFR1OP (ProbeSet 11751329_s_at) / Fold change (Aza/veh), VPS36 (ProbeSet 11739960_a_at) / Fold change (ACY-1035/veh), VPS36 (ProbeSet 11739960_a_at) / RFU SYPL1 (11715823_x_at) / Fold change /veh SYPL1 (11715823_x_at) / RFU IGFBP7 (11715501_s_at) / Fold change /veh IGFBP7 (11715501_s_at) / RFU REEP3 (11722064_at) / Fold change /veh REEP3 (11722064_at) / RFU IGLL1 (11728026_x_at) / Fold change /veh IGLL1 (11728026_x_at): dose or concentration left out as unconfirmed. To be noted: MV-4-11 cells, 48 hours.

In the case of `Nc1ncn([C@@H]2O[C@H](CO)[C@@H](O)[C@H]2O)c(=O)n1` [azacitidine], the “Fold change /veh LINC00158 (11744669_a_at)” value is on record as 1.04.
